In patent US12281225B2, “Process for preparing stable polymers containing vinylimidazole” (BASF SE, priority 2018, dated 2025):

How the values were obtained:
[1] = Iodine color number according to DIN 6162:2014-09; type: physicochemical
[2] = Physical stability; visual assessment (color, turbidity, phase separation); type: physicochemical; set-up: key: ++: no discernible change with respect to color, turbidity or phase separation; +: marginal change in color number, somewhat increased Tyndall effect but no turbidity; 0: easily discernible increase in color number and moderate turbidity−no phase separation; −: turbidity and change in color number readily discernible by visual assessment; −−: strong color change with strong turbidity and incipient phase separation
Description: Physical stability; visual assessment according to:
++=no discernible change with respect to color, turbidity or phase separation; +=marginal change in color number, somewhat increased Tyndall effect but no turbidity; 0=easily discernible increase in color number and moderate turbidity−no phase separation; − turbidity and change in color number readily discernible by visual assessment; −− strong color change with strong turbidity and incipient phase separation.
Before storage, all batches could be rated ++ (no turbidity or phase separation; no influence of the biocide on the color number of the product).

[3] = system: Bacteria: Escherichia coli, Staphylococcus aureus, Pseudomonas aeruginosa, Pseudomonas putida, Burkholderia cepacia, Alcaligenes faecalis; experiment: Preservation test with periodic inoculation, bacteria assessment; type: cell-based; details: sample stored 60 d at 40° C.
Method: (§1) Microbiological results at the start (freshly formulated, i.e. 4-week test series is started immediately) and after 60 days of storage at 40° C. (i.e. the 4-week microbial testing is started with the sample stored at 40° C. for 60 days)
(§2) The test described below is carried out in order to ascertain the preserving effect of chemical preservatives in aqueous products and systems, the principle of the described method reflecting the efficacy of chemical preservatives with respect to pot-maintenance of aqueous products/systems under conditions corresponding to the use of laundry products/consumer products by the consumer. For this purpose, the preservatives to be tested are added in those concentrations which correspond to from the literature or to the manufacturer data from the suppliers (e.g. Thor, Speyer). In said test, our orientation was toward the upper range, which, with the exception of VI-containing polymers, had always led to excellent results in the case of aqueous polymers for laundry.
(§3) A constant microorganism load is achieved by periodic inoculation of the test batches. Before the swabs of each batch made respectively immediately in parallel with the inoculation. The assessment is made on the basis of the microbial growth of the streaks.
(§4) When carrying out said tests, 25 g of the polymer to be tested are weighed in each case into a vessel with a screw cap. The preservatives to be tested are each added in separate batches according to the specified use concentrations. An unpreserved product sample was used in each case for the growth control. Two days after the addition of the preservative, the samples are infected with 0.5 ml of inoculum (2% w/w). The titer of this inoculant solution is 10^9 organisms per ml. The following microorganisms are the test organisms for the preservation test:
(§5) • Escherichia coli • Staphylococcus aureus • Pseudomonas aeruginosa • Pseudomonas putida • Burkholderia cepacia • Alcaligenes faecalis Yeast: • Candida albicans • Candida valida • Rhodotorula rura • Saccharomyces cerevisiae
(§6) The test batches are inoculated four times altogether and once a week and are streaked on an agar plate once a week; the first streaking is done immediately before the new inoculation. Microbial growth on the agar surface is assessed after a three-day incubation at 25° C. As a precaution, negative swabs are additionally observed for a further three days and reassessed. The preserving effect is effected in a semiquantitative method via the growth of the individual streaks in accordance with the assessment from − via + to +++. The preservative result is repeatedly demonstrably robust, i.e. +++− defines the microbial growth.
(§7) When assessing the results, it is assumed that a preservative can be regarded as good if there are batches under the above-described laboratory conditions for a period of four weeks without microbial invasion of the sample, and that, even after the fourth inoculation, no microbial attacks occur growth can be identified. • −−: no growth • −: slight growth, max. 100 colonies • 0: moderate growth, max. 400 colonies • +: uniform growth with individual colonies still easily identifiable • ++: strong growth; too many colonies to be counted, already some extensive growth

[4] = system: Yeast: Candida albicans, Candida valida, Rhodotorula rura, Saccharomyces cerevisiae; experiment: Preservation test with periodic inoculation, yeast assessment; type: cell-based; details: for Start sample measurement, yeast assess., 4th inoculation: freshly formulated; for 60 d 40° C., yeast assess., 4th inoculation: sample stored 60 d at 40° C.
Method: as §1, §2, §3, §4, §5, §6, §7

[5] = Polymer P5 (HP56) with stabilizer

## Cn1sc(Cl)cc1=O [CMIT, 5-chloro-N-methylisothiazolin-3-one]
[1]; Polymer P1 with stabilizer
  Iodine color number, 60 d 40° C.: 6.2
  Iodine color number, start: 2.5
[1]; Polymer P2 with stabilizer
  Iodine color number, 60 d 40° C.: 8.6
  Iodine color number, start: 3.1
[1]; Polymer P3 with stabilizer
  Iodine color number, 60 d 40° C.: 8.5
  Iodine color number, start: 3.2
[1]; Polymer P4 with stabilizer
  Iodine color number, 60 d 40° C.: 8.9
  Iodine color number, start: 3.2
[1]; [5]
  Iodine color number, 60 d 40° C.: 9.0
  Iodine color number, start: 3.5
[1]; Polymer P6 with stabilizer
  Iodine color number, 60 d 40° C.: 9.1
  Iodine color number, start: 3.5
[1]; Polymer P7 with stabilizer
  Iodine color number, 60 d 40° C.: 9.1
  Iodine color number, start: 3.5
[1]; Polymer P8 with stabilizer
  Iodine color number, 60 d 40° C.: 9.3
  Iodine color number, start: 3.3
[1]; Polymer P9 with stabilizer
  Iodine color number, 60 d 40° C.: 13.9
  Iodine color number, start: 3.9
[2]; Polymer P1 with stabilizer
  Physical stability, 60 d 40° C.*: −−
[2]; Polymer P2 with stabilizer
  Physical stability, 60 d 40° C.*: −−
[2]; Polymer P3 with stabilizer
  Physical stability, 60 d 40° C.*: −
[2]; Polymer P4 with stabilizer
  Physical stability, 60 d 40° C.*: −−
[2]; [5]
  Physical stability, 60 d 40° C.*: −−
[2]; Polymer P6 with stabilizer
  Physical stability, 60 d 40° C.*: −−
[2]; Polymer P7 with stabilizer
  Physical stability, 60 d 40° C.*: −
[2]; Polymer P8 with stabilizer
  Physical stability, 60 d 40° C.*: −−
[2]; Polymer P9 with stabilizer
  Physical stability, 60 d 40° C.*: −−
[3]; Polymer P1
  60 d 40° C., bact. assess., 4th inoculation: 0 (moderate growth, max. 400 colonies)
[3]; Polymer P2
  60 d 40° C., bact. assess., 4th inoculation: +
[3]; Polymer P3
  60 d 40° C., bact. assess., 4th inoculation: +
[3]; Polymer P4
  60 d 40° C., bact. assess., 4th inoculation: +
[3]; Polymer P5 (HP56)
  60 d 40° C., bact. assess., 4th inoculation: +
[3]; Polymer P6
  60 d 40° C., bact. assess., 4th inoculation: +
[3]; Polymer P7
  60 d 40° C., bact. assess., 4th inoculation: +
[3]; Polymer P8
  60 d 40° C., bact. assess., 4th inoculation: 0 (moderate growth, max. 400 colonies)
[3]; Polymer P9
  60 d 40° C., bact. assess., 4th inoculation: ++
[4]; Polymer P1
  Start sample measurement, yeast assess., 4th inoculation: − (slight growth, max. 100 colonies)
  60 d 40° C., yeast assess., 4th inoculation: +
[4]; Polymer P2
  Start sample measurement, yeast assess., 4th inoculation: − (slight growth, max. 100 colonies)
  60 d 40° C., yeast assess., 4th inoculation: +
[4]; Polymer P3
  Start sample measurement, yeast assess., 4th inoculation: − (slight growth, max. 100 colonies)
  60 d 40° C., yeast assess., 4th inoculation: ++
[4]; Polymer P4
  Start sample measurement, yeast assess., 4th inoculation: − (slight growth, max. 100 colonies)
  60 d 40° C., yeast assess., 4th inoculation: +
[4]; Polymer P5 (HP56)
  Start sample measurement, yeast assess., 4th inoculation: − (slight growth, max. 100 colonies)
  60 d 40° C., yeast assess., 4th inoculation: ++
[4]; Polymer P6
  Start sample measurement, yeast assess., 4th inoculation: − (slight growth, max. 100 colonies)
  60 d 40° C., yeast assess., 4th inoculation: +
[4]; Polymer P7
  Start sample measurement, yeast assess., 4th inoculation: − (slight growth, max. 100 colonies)
  60 d 40° C., yeast assess., 4th inoculation: ++
[4]; Polymer P8
  Start sample measurement, yeast assess., 4th inoculation: − (slight growth, max. 100 colonies)
  60 d 40° C., yeast assess., 4th inoculation: 0 (moderate growth, max. 400 colonies)
[4]; Polymer P9
  Start sample measurement, yeast assess., 4th inoculation: − (slight growth, max. 100 colonies)
  60 d 40° C., yeast assess., 4th inoculation: ++

## benzalkonium chloride [BAC]
[1]; Polymer P1 with stabilizer
  Iodine color number, 60 d 40° C.: 2.8
  Iodine color number, start: 2.6
[1]; Polymer P2 with stabilizer
  Iodine color number, 60 d 40° C.: 3.2
  Iodine color number, start: 3.0
[1]; Polymer P3 with stabilizer
  Iodine color number, 60 d 40° C.: 3.3
  Iodine color number, start: 3.2
[1]; Polymer P4 with stabilizer
  Iodine color number, 60 d 40° C.: 3.3
  Iodine color number, start: 3.2
[1]; [5]
  Iodine color number, 60 d 40° C.: 3.3
  Iodine color number, start: 3.3
[1]; Polymer P6 with stabilizer
  Iodine color number, 60 d 40° C.: 3.4
  Iodine color number, start: 3.3
[1]; Polymer P7 with stabilizer
  Iodine color number, 60 d 40° C.: 3.4
  Iodine color number, start: 3.3
[1]; Polymer P8 with stabilizer
  Iodine color number, 60 d 40° C.: 3.4
  Iodine color number, start: 3.3
[1]; Polymer P9 with stabilizer
  Iodine color number, 60 d 40° C.: 4.0
  Iodine color number, start: 3.7
[2]; Polymer P1 with stabilizer
  Physical stability, 60 d 40° C.*: +
[2]; Polymer P2 with stabilizer
  Physical stability, 60 d 40° C.*: +
[2]; Polymer P3 with stabilizer
  Physical stability, 60 d 40° C.*: ++
[2]; Polymer P4 with stabilizer
  Physical stability, 60 d 40° C.*: +
[2]; [5]
  Physical stability, 60 d 40° C.*: +
[2]; Polymer P6 with stabilizer
  Physical stability, 60 d 40° C.*: +
[2]; Polymer P7 with stabilizer
  Physical stability, 60 d 40° C.*: ++
[2]; Polymer P8 with stabilizer
  Physical stability, 60 d 40° C.*: +
[2]; Polymer P9 with stabilizer
  Physical stability, 60 d 40° C.*: +
[4]; Polymer P1
  60 d 40° C., yeast assess., 4th inoculation: − (slight growth, max. 100 colonies)
[4]; Polymer P2
  60 d 40° C., yeast assess., 4th inoculation: − (slight growth, max. 100 colonies)
[4]; Polymer P3
  60 d 40° C., yeast assess., 4th inoculation: − (slight growth, max. 100 colonies)
